The values that follow are results of earlier work, collected in US20110105387A1 (priority 2009, published 2011).

The conditions of series [1]: literature.
For series [2] the following is noted: literature. The source holds these as a separate data set.

In brackets after ≈: the same amount, converted by molar mass. Where only a bound is given, the exact number is not on record here.

Regarding `CO[C@H]1C[C@@H]2CC[C@@H](C)[C@@](O)(O2)C(=O)C(=O)N2CCCC[C@H]2C(=O)O[C@H]([C@H](C)C[C@@H]2CC[C@@H](OC(=O)C(C)(CO)CO)[C@H](OC)C2)CC(=O)[C@H](C)/C=C(\C)[C@@H](O)[C@@H](OC)C(=O)[C@H](C)C[C@H](C)/C=C/C=C/C=C/1C` [CCI-779], the water solubility in series [1] is roughly 120 µg/mL (≈ 116 µM).

As to `CO[C@H]1C[C@@H]2CC[C@@H](C)[C@@](O)(O2)C(=O)C(=O)N2CCCC[C@H]2C(=O)O[C@H]([C@H](C)C[C@@H]2CC[C@@H](O)[C@H](OC)C2)CC(=O)[C@H](C)/C=C(\C)[C@@H](O)[C@@H](OC)C(=O)[C@H](C)C[C@H](C)/C=C/C=C/C=C/1C` [rapamycin], the “time to attain peak concentrations” value in series [2] (after oral dosing) is no more than 2 h. Also, in series [2] (high-fat meal, slower rate of absorption), the “increase in AUC with a high-fat meal” value is on record as 35%. Besides, the excreted in urine in series [2] is recorded as less than 3%.
